In patent publication US10689377B2 (Mirati Therapeutics, Inc., priority 2017, dated 2020) one finds IC50 data, which are given here for eleven compounds.

Where a name gives a salt, the structure may show the parent alone.

For the assay, the target named is KRas G12C (Homo sapiens, UniProt P01116, G12C). The assay is described as follows: Cellular inhibition of KRas G12C measured by Phospho-ERK in NCI-H358 cells. The assay is classed as cell-based. As to conditions: pERK(Thr202/Tyr204) normalized with GAPDH, NCI-H358 cells, 3 hours; read-out: IC50. The method, then: Cells were plated in poly-D-Lysine coated 96-well plates at a concentration of 50,000 cells/well and allowed to attach for 8-12 hours. Diluted compounds were then added at a final concentration of 0.5% DMSO. After 3 hours, the medium was removed, 150 μL of 4% formaldehyde was added and the plates were incubated for 20 minutes. The plates were washed with PBS, and permeabilized using 150 μL of ice cold 100% methanol for 10 minutes. Non-specific antibody binding to the plates was blocked using 100 μL Licor Blocking Buffer (Li-Cor Biotechnology, Lincoln Nebr.) for 1 hour at room temperature. Positive control samples and samples lacking cells were parallel processed with test samples as standards.
Sequence of KRas G12C (P01116 1-188 isoform P01116-2 G12C): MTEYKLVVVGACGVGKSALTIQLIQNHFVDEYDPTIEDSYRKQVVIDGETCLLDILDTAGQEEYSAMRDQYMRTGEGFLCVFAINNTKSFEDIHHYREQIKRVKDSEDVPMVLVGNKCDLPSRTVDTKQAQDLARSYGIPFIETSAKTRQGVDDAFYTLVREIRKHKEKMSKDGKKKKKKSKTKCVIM
The amount Phospho-ERK was determined using an antibody specific for the phosphorylated form of ERK and compared to the amount of GAPDH. […] The plates were incubated for 2 hours at room temperature. The plates were washed with PBS+0.05% Tween 20.
Secondary antibodies used to visualize primary antibodies were added as follows: Anti-rabbit-680 diluted 1:1000 and Anti-mouse-800 diluted 1:1000 in Licor Block+0.05% Tween 20 and incubated for 1 hour at room temperature. The plates were washed with PBS+0.05% Tween 20. A 100 μL aliquot of PBS was added to each well and the plates were read on a LICOR AERIUS plate reader.
The pERK(Thr202/Tyr204) signal was normalized with the GAPDH signal and percent of DMSO control values were calculated. IC50 values were generated using a 4 parameter fit of the dose response curve. Key: “A”≥0.0001-≤1 μM; “B”>1 μM and ND=not determined.
Usually IC50 stands for the concentration that inhibits the measured activity by half. With `C=CC(=O)N1CCN(c2nc(N3CCC(N(C)C)C3)nc3c2CCN(c2cc(O)cc4ccccc24)C3)CC1` (centres unmarked) [Example 13, 1-(4-(2-(3-(dimethylamino)pyrrolidin-1-yl)-7-(3-hydroxynaphthalen-1-yl)-5,6,7,8-tetrahydropyrido[3,4-d]pyrimidin-4-yl)piperazin-1-yl)prop-2-en-1-one], the IC50 is above 1000 nM. Take `C=CC(=O)N1CCN(c2nc(OC[C@@H]3CN(C)CCO3)nc3c2CCN(c2cccc4ccccc24)C3)CC1CC#N` (stereo partly drawn) [Example 444, 2-(1-acryloyl-4-(2-(((S)-4-methylmorpholin-2-yl)methoxy)-7-(naphthalen-1-yl)-5,6,7,8-tetrahydropyrido[3,4-d]pyrimidin-4-yl)piperazin-2-yl)acetonitrile]: the IC50 is 0.1 to 1000 nM. With `C=C(F)C(=O)N1CCN(c2nc(OC[C@@H]3CCCN3C)nc3c2CCN(c2c(C(F)(F)F)c(C)cc4[nH]ncc24)C3)C[C@@H]1CC#N` [Example 527], the IC50 fell in the range of 0.1 to 1000 nM. On to `CC#CC(=O)N1CCN(c2nc(OC[C@@H]3CCCN3C)nc3c2CCN(c2cccc4cccc(C)c24)C3)C[C@@H]1CC#N` [Example 458, 2-((S)-1-(but-2-ynoyl)-4-(7-(8-methylnaphthalen-1-yl)-2-(((S)-1-methylpyrrolidin-2-yl)methoxy)-5,6,7,8-tetrahydropyrido[3,4-d]pyrimidin-4-yl)piperazin-2-yl)acetonitrile], for which the IC50 is 0.1 to 1000 nM.

For the compound `C=CC(=O)N1CCN(c2nc(OCC3CCCN(C)C3)nc3c2CCN(c2cc(O)cc4ccccc24)C3)CC1` (centres unmarked) [Example 72], the IC50 fell in the range of 0.1 to 1000 nM. On to `C=CC(=O)N1CCN(c2nc(OC[C@H]3CCCC(=O)N3)nc3c2CCN(c2cc(O)cc4ccccc24)C3)CC1` (single isomer, unassigned) [Example 62], for which the IC50 was above 1000 nM. The result for `C=C(F)C(=O)N1CCN(c2nc(OC[C@@H]3CCCN3C)nc3c2CCN(c2cccc(C)c2C)C3)C[C@@H]1CC#N` [Example 472, 2-[(2S)-4-[7-(2,3-dimethylphenyl)-2-[[(2S)-1-methylpyrrolidin-2-yl]methoxy]-6,8-dihydro-5H-pyrido[3,4-d]pyrimidin-4-yl]-1-(2-fluoroprop-2-enoyl)piperazin-2-yl]acetonitrile] reads 0.1 to 1000 nM; that for `C=CC(=O)N1CCN(c2nc(OCCN3CCS(=O)(=O)CC3)nc3c2CCN(c2cc(O)cc4ccccc24)C3)CC1` [Example 33, 1-(4-(2-(2-(1,1-dioxidothiomorpholino)ethoxy)-7-(3-hydroxynaphthalen-1-yl)-5,6,7,8-tetrahydropyrido[3,4-d]pyrimidin-4-yl)piperazin-1-yl)prop-2-en-1-one trifluoroacetate], above 1000 nM. Regarding `C=CC(=O)N1CCN(c2nc(OC[C@@H]3CCCN3CC(=O)N(C)C)nc3c2CCN(c2cccc4ccccc24)C3)CC1CC#N` (stereo partly drawn) [Example 398, 2-((2S)-2-(((4-(4-acryloyl-3-(cyanomethyl)piperazin-1-yl)-7-(naphthalen-1-yl)-5,6,7,8-tetrahydropyrido[3,4-d]pyrimidin-2-yl)oxy)methyl)pyrrolidin-1-yl)-N,N-dimethylacetamide], the IC50 is 0.1 to 1000 nM. As to `C=CC(=O)N1CCN(c2nc(OC[C@@H]3C[C@@H](OC)CN3C)nc3c2CCN(c2cccc4ccccc24)C3)CC1CC#N` (stereo partly drawn) [Example 268, 2-(1-acryloyl-4-(2-(((2S,4R)-4-methoxy-1-methylpyrrolidin-2-yl)methoxy)-7-(naphthalen-1-yl)-5,6,7,8-tetrahydropyrido[3,4-d]pyrimidin-4-yl)piperazin-2-yl)acetonitrile], the IC50 is 0.1 to 1000 nM. Under `C=CC(=O)N1CCN(c2nc(OC[C@@H]3CCCN3CC(=O)N(C)C)nc3c2CCN(c2cccc4ccccc24)C3)C[C@@H]1CC#N` [Example 402, 2-((S)-2-(((4-((S)-4-acryloyl-3-(cyanomethyl)piperazin-1-yl)-7-(naphthalen-1-yl)-5,6,7,8-tetrahydropyrido[3,4-d]pyrimidin-2-yl)oxy)methyl)pyrrolidin-1-yl)-N,N-dimethylacetamide] stands 0.1 to 1000 nM.
